For 21 molecules, IC50 results are on record in patent publication US20260085053A1, “BENZOFURAN DERIVATIVES AS SIK INHIBITORS AND THE USE THEREOF” (BEONE MEDICINES I GMBH, priority 2023, published 2026).

A value given as a limit tells only on which side of the number the result lay.

For assay [1], the target named is T1, SIK3 kinase (aa59-365, Thermo Fisher) (Homo sapiens, UniProt Q9Y2K2).
T1 construct: SIK3 kinase (aa59-365, Thermo Fisher); purchased Thermo Fisher
Put plainly: Biochemical activities determination for SIK3 protein (TR-FRET). The conditions noted are these: 125 uM ATP, 0.5 μM STK1 substrate. In outline: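 SIK3 (aa59-365) was preincubated with compound (0-10 μM) for 60 min at room temperature in Tris buffer pH 7.5. The reaction was then started with 125 uM ATP and 0.5 μM STK1 substrate and run 180 min at room temperature. Phospho-substrate was detected by HTRF (665/620 nm ratio), and IC50 came from a four-parameter logistic fit.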
In general terms: Time-resolved FRET reads energy transfer from a long-lived donor to a nearby acceptor.

The target in assay [2] is T2, SIK2 kinase (full length, Thermo Fisher) (Homo sapiens, UniProt Q9H0K1).
T2 construct: SIK2 kinase (full length, Thermo Fisher); purchased Thermo Fisher
T2 sequence (Q9H0K1 whole entry): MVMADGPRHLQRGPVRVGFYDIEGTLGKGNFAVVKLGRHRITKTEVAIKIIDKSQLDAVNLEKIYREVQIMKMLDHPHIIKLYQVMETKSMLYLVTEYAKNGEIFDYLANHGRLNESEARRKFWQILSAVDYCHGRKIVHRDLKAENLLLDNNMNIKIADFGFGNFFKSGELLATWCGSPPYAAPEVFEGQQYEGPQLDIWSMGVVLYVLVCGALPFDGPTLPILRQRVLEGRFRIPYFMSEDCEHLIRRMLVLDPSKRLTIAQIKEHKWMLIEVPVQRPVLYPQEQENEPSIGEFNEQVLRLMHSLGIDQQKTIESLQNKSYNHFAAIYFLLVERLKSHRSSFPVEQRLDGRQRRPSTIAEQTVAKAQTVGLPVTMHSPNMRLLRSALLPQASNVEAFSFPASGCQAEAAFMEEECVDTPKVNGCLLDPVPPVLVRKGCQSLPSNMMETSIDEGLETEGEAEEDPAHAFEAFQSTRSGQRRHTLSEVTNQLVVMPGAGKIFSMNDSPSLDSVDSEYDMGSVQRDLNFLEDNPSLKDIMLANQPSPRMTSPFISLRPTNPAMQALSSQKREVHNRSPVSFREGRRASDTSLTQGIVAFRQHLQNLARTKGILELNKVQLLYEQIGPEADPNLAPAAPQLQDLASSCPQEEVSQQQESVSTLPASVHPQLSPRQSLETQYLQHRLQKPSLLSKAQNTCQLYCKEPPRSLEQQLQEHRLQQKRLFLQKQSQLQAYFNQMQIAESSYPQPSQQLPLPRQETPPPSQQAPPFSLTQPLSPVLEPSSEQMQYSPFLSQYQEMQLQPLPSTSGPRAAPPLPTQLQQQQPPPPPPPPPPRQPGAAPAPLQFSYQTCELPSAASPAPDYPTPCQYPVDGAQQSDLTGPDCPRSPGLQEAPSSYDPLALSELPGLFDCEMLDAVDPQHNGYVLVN
The experiment in a line: Biochemical activities determination for SIK2 protein (TR-FRET). Particulars: 80 uM ATP, 0.5 μM substrate. In outline:
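Full-length SIK2 preincubated 60 min with 0–10 μM compound, then reacted 180 min at room temperature with 80 uM ATP and 0.5 μM biotinylated substrate (pH 7.5 Tris/MgCl2 buffer). Phosphorylation detected by TR-FRET (665/620 nm ratio, cryptate antibody/streptavidin-XL665) after overnight incubation; IC50 from four-parameter logistic fit.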

Assay [3] concerns the target T3, SIK1 kinase (aa1-303, Thermo Fisher) (Homo sapiens, UniProt P57059).
T3 construct: SIK1 kinase (aa1-303, Thermo Fisher); purchased Thermo Fisher
Put plainly: Biochemical activities determination for SIK1 protein (TR-FRET). The conditions noted are these: 110 uM ATP, 0.5 μM STK1 substrate. In outline:
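TR-FRET kinase assay with SIK1 (aa1-303), 110 uM ATP, 0.5 μM STK1 substrate and 0-10 μM compound in Tris pH 7.5 with MgCl2, EGTA, DTT, Triton X-100. Enzyme preincubated with compound 60 min, reaction 180 min at room temperature; 665/620 nm ratio after overnight detection; IC50 from four-parameter logistic fit.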

T1 sequence (Q9Y2K2 59-365): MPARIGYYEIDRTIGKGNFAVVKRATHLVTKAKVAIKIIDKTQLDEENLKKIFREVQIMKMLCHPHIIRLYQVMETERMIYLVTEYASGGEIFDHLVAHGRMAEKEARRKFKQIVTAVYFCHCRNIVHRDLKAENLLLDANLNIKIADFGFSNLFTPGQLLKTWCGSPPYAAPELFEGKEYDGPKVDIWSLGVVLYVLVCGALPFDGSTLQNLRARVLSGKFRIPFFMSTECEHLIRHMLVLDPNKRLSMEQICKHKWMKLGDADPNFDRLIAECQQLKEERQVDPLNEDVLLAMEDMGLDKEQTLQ
T3 sequence (P57059 1-303): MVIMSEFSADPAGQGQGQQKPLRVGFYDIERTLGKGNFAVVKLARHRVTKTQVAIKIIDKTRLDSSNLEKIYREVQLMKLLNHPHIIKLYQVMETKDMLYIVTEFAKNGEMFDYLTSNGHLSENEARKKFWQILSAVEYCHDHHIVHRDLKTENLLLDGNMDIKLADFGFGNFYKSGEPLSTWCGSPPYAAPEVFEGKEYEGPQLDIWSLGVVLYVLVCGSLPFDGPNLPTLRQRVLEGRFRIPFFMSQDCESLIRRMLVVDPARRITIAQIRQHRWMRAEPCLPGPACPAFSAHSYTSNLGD

Consider `COc1cc(-c2coc3cc(-c4cnn(C5CN(CCC#N)C5)c4)ccc23)cc2c1C(=O)N(CC(F)(F)F)CC2` [Compound 54, 3-(3-(4-(3-(8-methoxy-1-oxo-2-(2,2,2-trifluoroethyl)-1,2,3,4-tetrahydroisoquinolin-6-yl)benzofuran-6-yl)-1H-pyrazol-1-yl)azetidin-1-yl) propanenitrile], for which the IC50 in assay [1] came out at 19 nM; in assay [2] it was 6.9 nM; in assay [3], 326 nM.

Regarding `CN1CCC(n2cc(-c3ccc4c(-c5cc6c(c(OC(F)F)c5)C(=O)N(CC#N)CC6)coc4c3)cn2)CC1` [Compound 55, 2-(8-(difluoromethoxy)-6-(6-(1-(1-methylpiperidin-4-yl)-1H-pyrazol-4-yl)benzofuran-3-yl)-1-oxo-3,4-dihydroisoquinolin-2 (1H)-yl) acetonitrile], the IC50 in assay [1] is 18 nM; in assay [2], 3.9 nM; in assay [3], 301 nM.

Turning to `CN1CCC(n2cc(-c3ccc4c(-c5cc6c(c(OC(F)F)c5)C(=O)N(CC#N)CC6)coc4c3)cn2)C1` (stereo not drawn) [Compound 56, 2-(8-(difluoromethoxy)-6-(6-(1-(1-methylpyrrolidin-3-yl)-1H-pyrazol-4-yl)benzofuran-3-yl)-1-oxo-3,4-dihydroisoquinolin-2 (1H)-yl) acetonitrile], the IC50 in assay [1] worked out at 15 nM; in assay [2] it was 2.6 nM; in assay [3] it was 315 nM.

In the case of `CN1CC(n2cc(-c3ccc4c(-c5cc6c(c(OC(F)F)c5)C(=O)N(CC#N)CC6)coc4c3)cn2)C1` [Compound 57, 2-(8-(difluoromethoxy)-6-(6-(1-(1-methylazetidin-3-yl)-1H-pyrazol-4-yl)benzofuran-3-yl)-1-oxo-3,4-dihydroisoquinolin-2 (1H)-yl) acetonitrile], the IC50 came out at 17 nM in assay [1], 2.7 nM in assay [2] and 405 nM in assay [3].

For the molecule `COc1cc(-c2coc3cc(OCCN4CCOCC4)ccc23)cc2c1C(=O)N(CC(F)(F)F)CC2` [Compound 58, 8-methoxy-6-(6-(2-morpholinoethoxy)benzofuran-3-yl)-2-(2,2,2-trifluoroethyl)-3,4-dihydroisoquinolin-1 (2H)-one], the IC50 in assay [1] is 391 nM; in assay [2] it was 167 nM; in assay [3] it was above 10000 nM.

As to `COc1cc(-c2coc3cc(OCCN4CCCC4)ccc23)cc2c1C(=O)N(CC(F)(F)F)CC2` [Compound 59, 8-methoxy-6-(6-(2-(pyrrolidin-1-yl)ethoxy)benzofuran-3-yl)-2-(2,2,2-trifluoroethyl)-3,4-dihydroisoquinolin-1 (2H)-one], the values for the IC50 in assay [1], in assay [2] and in assay [3] were 348 nM, 77 nM and above 10000 nM, respectively.

On to `COc1cc(-c2coc3cc(OCc4cncn4C)ccc23)cc2c1C(=O)N(CC(F)(F)F)CC2` [Compound 60, 8-methoxy-6-(6-((1-methyl-1H-imidazol-5-yl)methoxy)benzofuran-3-yl)-2-(2,2,2-trifluoroethyl)-3,4-dihydroisoquinolin-1 (2H)-one], for which the IC50 in assay [1] is 421 nM; in assay [2] it was 635 nM; in assay [3], above 10000 nM.

In the case of `COc1cc(-c2coc3cc(OCC4CCCN4C)ccc23)cc2c1C(=O)N(CC(F)(F)F)CC2` (stereo not drawn) [Compound 61, 8-methoxy-6-(6-((1-methylpyrrolidin-2-yl)methoxy)benzofuran-3-yl)-2-(2,2,2-trifluoroethyl)-3,4-dihydroisoquinolin-1 (2H)-one], the IC50 in assay [1] is 322 nM; in assay [2] it was 147 nM; in assay [3], above 10000 nM.

For `COc1cc(-c2coc3cc(OCCN4CCCC4)ccc23)cc(OC(F)F)c1C(=O)NC1CC1` [Compound 62, N-cyclopropyl-2-(difluoromethoxy)-6-methoxy-4-(6-(2-(pyrrolidin-1-yl)ethoxy)benzofuran-3-yl)benzamide], the IC50 in assay [1] was 122 nM; in assay [2], 76 nM; in assay [3], above 10000 nM.

Turning to `O=C1c2c(cc(-c3coc4cc(OCCN5CCCC5)ccc34)cc2OC(F)F)CCN1CC(F)(F)F` [Compound 63, 8-(difluoromethoxy)-6-(6-(2-(pyrrolidin-1-yl)ethoxy)benzofuran-3-yl)-2-(2,2,2-trifluoroethyl)-3,4-dihydroisoquinolin-1 (2H)-one], the values for the IC50 in assay [1], in assay [2] and in assay [3] were 300 nM, 67 nM and above 10000 nM, respectively.

For `COc1cc(-c2coc3cc(OCCN4CCCCC4)ccc23)cc2c1C(=O)N(CC(F)(F)F)CC2` [Compound 64, 8-methoxy-6-(6-(2-(piperidin-1-yl)ethoxy)benzofuran-3-yl)-2-(2,2,2-trifluoroethyl)-3,4-dihydroisoquinolin-1 (2H)-one], the IC50 in assay [1] is 415 nM; in assay [2], 73 nM; in assay [3], above 10000 nM.

With `COc1cc(-c2coc3cc(OCCN4CCCC4)ccc23)cc2c1C(=O)N(CC#N)CC2` [Compound 65, 2-(8-methoxy-1-oxo-6-(6-(2-(pyrrolidin-1-yl)ethoxy)benzofuran-3-yl)-3,4-dihydroisoquinolin-2 (1H)-yl) acetonitrile], the IC50 is 313 nM in assay [1], 103 nM in assay [2] and above 10000 nM in assay [3].

Turning to `COc1cc(-c2coc3cc(OCCN4CCCC4)ccc23)cc(OC(F)F)c1C(=O)NCC#N` [Compound 66, N-(cyanomethyl)-2-(difluoromethoxy)-6-methoxy-4-(6-(2-(pyrrolidin-1-yl)ethoxy)benzofuran-3-yl)benzamide], the IC50 worked out at 132 nM in assay [1], 58 nM in assay [2] and 6690 nM in assay [3].

With `COc1cc(-c2coc3cc(OCCN4CCCC4)ccc23)cc(OC(F)F)c1C(=O)N[C@@H]1C[C@@H]1F` [Compound 67, 2-(difluoromethoxy)-N-((1R,2S)-2-fluorocyclopropyl)-6-methoxy-4-(6-(2-(pyrrolidin-1-yl)ethoxy)benzofuran-3-yl)benzamide], the IC50 in assay [1] stood at 79 nM; in assay [2], 23 nM; in assay [3], 2450 nM.

For `COc1cc(-c2coc3cc(OC(C)CN4CCCC4)ccc23)cc(OC(F)F)c1C(=O)N[C@@H]1C[C@@H]1F` (stereo partly drawn) [Compound 68, 2-(difluoromethoxy)-N-((1R,2S)-2-fluorocyclopropyl)-6-methoxy-4-(6-((1-(pyrrolidin-1-yl)propan-2-yl)oxy)benzofuran-3-yl)benzamide], the IC50 in assay [1] was 139 nM; in assay [2], 90 nM; in assay [3] it was 8180 nM.

As to `COc1cc(-c2coc3cc(OCCN4CCOCC4)ccc23)cc(OC(F)F)c1C(=O)N[C@@H]1C[C@@H]1F` [Compound 69, 2-(difluoromethoxy)-N-((1R,2S)-2-fluorocyclopropyl)-6-methoxy-4-(6-(2-morpholinoethoxy)benzofuran-3-yl)benzamide], the 50% inhibitory concentration (IC50) was 45 nM in assay [1], 41 nM in assay [2] and 1270 nM in assay [3].

As for `COc1cc(-c2coc3cc(OCCN4CCCCC4)ccc23)cc(OC(F)F)c1C(=O)N[C@@H]1C[C@@H]1F` [Compound 70, 2-(difluoromethoxy)-N-((1R,2S)-2-fluorocyclopropyl)-6-methoxy-4-(6-(2-(piperidin-1-yl)ethoxy)benzofuran-3-yl)benzamide], the IC50 was 42 nM in assay [1], 14 nM in assay [2] and 2950 nM in assay [3].

Take `COc1cc(-c2coc3cc(OCCN4CC[C@@H](F)C4)ccc23)cc(OC(F)F)c1C(=O)N[C@@H]1C[C@@H]1F` [Compound 71, 2-(difluoromethoxy)-N-((1R,2S)-2-fluorocyclopropyl)-4-(6-(2-((R)-3-fluoropyrrolidin-1-yl)ethoxy)benzofuran-3-yl)-6-methoxybenzamide]: the IC50 in assay [1] stood at 39 nM; in assay [2] it was 48 nM; in assay [3], 1380 nM.

On to `COc1cc(-c2coc3cc(OCCCN4CCCC4)ccc23)cc(OC(F)F)c1C(=O)N[C@@H]1C[C@@H]1F` [Compound 72, 2-(difluoromethoxy)-N-((1R,2S)-2-fluorocyclopropyl)-6-methoxy-4-(6-(3-(pyrrolidin-1-yl)propoxy)benzofuran-3-yl)benzamide], for which the IC50 in assay [1] worked out at 31 nM; in assay [2], 6 nM; in assay [3], 461 nM.

As to `COc1cc(-c2coc3cc(OCCN(C)C)ccc23)cc(OC(F)F)c1C(=O)N[C@@H]1C[C@@H]1F` [Compound 73, 2-(difluoromethoxy)-4-(6-(2-(dimethylamino)ethoxy)benzofuran-3-yl)-N-((1R,2S)-2-fluorocyclopropyl)-6-methoxybenzamide], the IC50 in assay [1] was determined as 65 nM; in assay [2] it was 24 nM; in assay [3], 3260 nM.

As to `COc1cc(-c2coc3cc(OCCN4CC[C@H](F)C4)ccc23)cc(OC(F)F)c1C(=O)N[C@@H]1C[C@@H]1F` [Compound 74, 2-(difluoromethoxy)-N-((1R,2S)-2-fluorocyclopropyl)-4-(6-(2-((S)-3-fluoropyrrolidin-1-yl)ethoxy)benzofuran-3-yl)-6-methoxybenzamide], the IC50 in assay [1] was 34 nM; in assay [2], 26 nM; in assay [3] it was 1130 nM.

The IC50 is the midpoint of a concentration-inhibition curve. Low readings indicate inhibition by little substance, high ones a need for much substance.
